Measurements from US8173682B2, “Substituted pyridones as inhibitors of poly(ADP-ribose) polymerase (PARP)” (Aventis Pharmaceuticals Inc., priority 2004, dated 2012).

These compounds were tested against recombinantly expressed human PARP-1 enzyme (Homo sapiens, UniProt P09874) (assay: PARP enzyme assay, Method B (tritium-labeled NAD incorporation)). Settings: Method B; 200 μM NAD, room temperature 1 hour, pH 8.0; read-out: IC50 (μM)/Method B.
Format: biochemical
How it was run: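 DNA-activated purified recombinant enzyme (2 μg/mL) incubated with test compound for 1 h at room temperature, pH 8.0, with 200 μM NAD plus tritiated NAD, DNA and histones. TCA-precipitated radiolabelled protein collected on glass-fibre filters and counted; IC50 is the concentration halving incorporation versus no-inhibitor control.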

recombinantly expressed human PARP-1 enzyme, sequence (P09874 whole entry): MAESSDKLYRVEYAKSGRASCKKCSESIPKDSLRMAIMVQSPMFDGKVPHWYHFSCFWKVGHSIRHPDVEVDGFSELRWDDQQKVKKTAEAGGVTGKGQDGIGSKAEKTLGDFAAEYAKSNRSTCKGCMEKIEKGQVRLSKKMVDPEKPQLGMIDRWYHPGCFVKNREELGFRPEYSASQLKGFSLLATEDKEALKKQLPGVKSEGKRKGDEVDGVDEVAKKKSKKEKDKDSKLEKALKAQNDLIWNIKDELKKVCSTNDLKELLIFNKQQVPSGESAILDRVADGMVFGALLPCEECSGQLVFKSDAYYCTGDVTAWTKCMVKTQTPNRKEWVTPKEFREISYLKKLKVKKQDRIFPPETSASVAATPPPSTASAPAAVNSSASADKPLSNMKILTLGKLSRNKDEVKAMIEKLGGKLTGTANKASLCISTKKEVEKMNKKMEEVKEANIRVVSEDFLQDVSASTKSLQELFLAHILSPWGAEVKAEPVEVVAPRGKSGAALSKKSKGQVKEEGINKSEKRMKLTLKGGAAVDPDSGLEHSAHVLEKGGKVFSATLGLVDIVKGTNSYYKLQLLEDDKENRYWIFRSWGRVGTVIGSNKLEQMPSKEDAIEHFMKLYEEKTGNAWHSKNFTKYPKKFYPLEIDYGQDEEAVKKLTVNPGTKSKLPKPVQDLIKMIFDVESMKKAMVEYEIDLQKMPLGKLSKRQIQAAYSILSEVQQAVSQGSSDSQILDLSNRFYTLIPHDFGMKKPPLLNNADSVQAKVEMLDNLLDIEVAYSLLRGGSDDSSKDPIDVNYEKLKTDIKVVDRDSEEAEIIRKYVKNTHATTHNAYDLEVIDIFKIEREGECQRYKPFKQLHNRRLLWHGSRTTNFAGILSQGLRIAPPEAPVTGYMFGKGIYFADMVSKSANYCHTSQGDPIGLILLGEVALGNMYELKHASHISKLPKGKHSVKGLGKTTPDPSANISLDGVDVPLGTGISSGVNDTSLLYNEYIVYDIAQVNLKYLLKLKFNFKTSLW

| SMILES | IC50 [µM] |
| --- | --- |
| CCc1cc(-c2cncc(C(=O)N(CC)Cc3ccncc3)c2)c(C)[nH]c1=O [Example 235, 5′-Ethyl-2′-methyl-6′-oxo-1′,6′-dihydro-[3,3′]bipyridinyl-5-carboxylic acid ethyl-pyridin-4-ylmethyl-amide] | 1.86 |
| CCc1cc(-c2ccc(C(C)O)o2)c(C)[nH]c1=O (centres unmarked) [Example 268, 3-Ethyl-5-[5-(1-hydroxy-ethyl)-furan-2-yl]-6-methyl-1H-pyridin-2-one] | 1.8 |
| CCc1cc(-c2cc(C(=O)NC3CCCC3)ccn2)c(C)[nH]c1=O [Example 216, 5′-Ethyl-2′-methyl-6′-oxo-1′,6′-dihydro-[2,3′]bipyridinyl-4-carboxylic acid cyclopentylamide] | 1.5 |
| CCc1cc(-c2ccc(CNCc3ccccc3OC(F)(F)F)o2)c(C)[nH]c1=O [Example 182E, 3-Ethyl-6-methyl-5-{5-[(2-trifluoromethoxy-benzylamino)-methyl]-furan-2-yl}-1H-pyridin-2-one] | 1.49 |
| CCc1cc(-c2cncc(C(=O)NCCc3ccc([N+](=O)[O-])cc3)c2)c(C)[nH]c1=O [Example 230, 5′-Ethyl-2′-methyl-6′-oxo-1′,6′-dihydro-[3,3′]bipyridinyl-5-carboxylic acid [2-(4-nitro-phenyl)-ethyl]-amide] | 0.13 |
| CCc1cc(-c2cncc(C(=O)NCCN3CCOCC3)c2)c(C)[nH]c1=O [Example 241, 5′-Ethyl-2′-methyl-6′-oxo-1′,6′-dihydro-[3,3′]bipyridinyl-5-carboxylic acid (2-morpholin-4-yl-ethyl)-amide] | 1.25 |
| CCc1cc(-c2cccc(CN3CCC(N4CCCC4)CC3)n2)c(C)[nH]c1=O [Example 182K, 5′-Ethyl-2′-methyl-6-(4-pyrrolidin-1-yl-piperidin-1-ylmethyl)-1′H-[2,3′]bipyridinyl-6′-one] | 4.23 |
| CCc1cc(-c2ccc(CN(C)Cc3ccccc3)o2)c(C)[nH]c1=O [Example 179, 5-{5-[(Benzylmethylamino)methyl]furan-2-yl)-3-ethyl-6-methyl-1H-pyridin-2-one] | 2.11 |
| CCc1cc(-c2cncc(C(=O)NCc3ccc(O)c(OC)c3)c2)c(C)[nH]c1=O [Example 265, 5′-Ethyl-2′-methyl-6′-oxo-1′,6′-dihydro-[3,3′]bipyridinyl-5-carboxylic acid 4-hydroxy-3-methoxy-benzylamide] | 4.1 |
| CCc1cc(-c2cncc(C(=O)N3CC(O)CC3C(=O)OC)c2)c(C)[nH]c1=O (centres unmarked) [Example 231, 1-(5′-Ethyl-2′-methyl-6′-oxo-1′,6′-dihydro-[3,3′]bipyridinyl-5-carbonyl)-4-hydroxy-pyrrolidine-2-carboxylic acid methyl ester] | 14.8 |
| CCc1cc(-c2cccc(CN3CCCC3)n2)c(C)[nH]c1=O [Example 182G, 5′-Ethyl-2′-methyl-6-pyrrolidin-1-ylmethyl-1′H-[2,3′]bipyridinyl-6′-one] | 3.33 |
| CCc1cc(-c2cncc(C(=O)NCCC3CCOCC3)c2)c(C)[nH]c1=O [Example 242, 5′-Ethyl-2′-methyl-6′-oxo-1′,6′-dihydro-[3,3′]bipyridinyl-5-carboxylic acid [2-(tetrahydro-pyran-4-yl)-ethyl]-amide] | 1.79 |
| CCc1cc(-c2cccc(CN3CCN(C(C)=O)CC3)n2)c(C)[nH]c1=O [Example 182J, 6-(4-Acetyl-piperazin-1-ylmethyl)-5′-ethyl-2′-methyl-1′H-[2,3′]bipyridinyl-6′-one] | 14.6 |
| CCc1cc(-c2cncc(C(=O)NCCc3ccc(OC)cc3)c2)c(C)[nH]c1=O [Example 239, 5′-Ethyl-2′-methyl-6′-oxo-1′,6′-dihydro-[3,3′]bipyridinyl-5-carboxylic acid [2-(4-methoxy-phenyl)-ethyl]-amide] | 0.94 |
| CCc1cc(-c2ccc(S(=O)(=O)NCCc3ccccn3)s2)c(C)[nH]c1=O [Example 43A, 5-(5-Ethyl-2-methyl-6-oxo-1,6-dihydropyridin-3-yl)thiophene-2-sulfonic acid 2-(pyridin-2-yl)ethylamide] | 0.67 |
| CCc1cc(-c2cncc(C(=O)N(C)CC(N)=O)c2)c(C)[nH]c1=O [Example 233, 5′-Ethyl-2′-methyl-6′-oxo-1′,6′-dihydro-[3,3′]bipyridinyl-5-carboxylic acid carbamoylmethyl-methyl-amide] | 1.65 |
| CCc1cc(-c2ccc(CNC(=O)c3ccccn3)o2)c(C)[nH]c1=O [Example 273, Pyridine-2-carboxylic acid [5-(5-ethyl-2-methyl-6-oxo-1,6-dihydro-pyridin-3-yl)-furan-2-ylmethyl]-amide] | 1.4 |
